Experiments:
Test in all cases: iSPP profiling, P. falciparum lysate
Format in all cases: binding, Plasmodium falciparum
DnaJ protein (W7JVI6) = system: DnaJ protein (W7JVI6)
Experimental: (§1) P. falciparum NF54 lysates were extracted as described in ^[26^] . The parasite asynchronous culture was extracted once 3-5% parasitemia was reached. Saponin lysis was done as described in 2.2.10. Once the parasite pellet was obtained, 2.5 volumes of ice-cold lysis buffer (50 mM Tris/HCl pH 7.5 (Avantor), 5% glycerol (Sigma-Aldrich), 150 mM NaCl (Carl Roth), 1.5 mM MgCl2 (Sigma-Aldrich), 1 mM DTT (Carl Roth), 0.8% IGEPAL CA-630 (Sigma-Aldrich), 1X Halt Protease and Phosphatase Inhibitor-Cocktails EDTA-free (Thermo Fisher Scientific)) was added to the parasite pellet. The lysate solution was subjected to three cycles of flash freeze-thaw with liquid nitrogen and ddH2O at RT. The lysates were centrifuged at 20,000 g for 20 minutes at 4 °C. The soluble protein fraction (supernatant) was collected and the protein content was quantified using the BCA assay (Pierce™ BCA Protein Assay Kit, Thermo Fisher Scientific). The lysate was stored at -80 °C until further use.
(§2) The P. falciparum lysate was thawed on ice and diluted to 0.8 mg/mL. […] Subsequently, the samples were incubated at room temperature for 30 minutes using a rotating mixer. After distribution into a 96-well plate, the samples were treated with increasing concentrations of A.E.A. (v/v) ranging from 14% to 28% (14, 16, 18, 20, 22, 24, 26, and 28%). Following a 20-minute incubation at 37°C with shaking at 750 rpm, the samples were centrifuged at 4400 g for 35 minutes to remove precipitated proteins. The soluble fractions were then pooled in equal volumes into a single sample using the Bravo Automated Liquid Handling Platform. The pooled samples were subsequently prepared for LC-MS/MS analysis.
(§3) The raw LFQ-DIA intensity values of biological replicates across all conditions were normalized to the median abundance using Excel. The normalized values were then log2 transformed in Perseus (v2.0.10.0).^[58^] Missing values were imputed from a normal distribution (width 0.3, down shift 1.5), and p-values were obtained using a two-sample t-test over replicates with a permutation-based false discovery rate correction (FDR 0.05). Volcano plots were generated in RStudio using the EnhancedVolcano package (v. 1.20.0), ^[59^] plotting proteins by statistical significance (y-axis: –Log10 p-value) versus the magnitude of change (x-axis: log2 fold change of protein intensities for each compound condition relative to the vehicle control). The heatmap was generated in Perseus (v2.0.10.0). Dose-dependent curves were generated using normalized protein intensity values, expressed as a ratio to the vehicle control. Plots were created in GraphPad Prism (v8.3.0) using a nonlinear regression model.

[1] = system: Eukaryotic translation initiation factor 3 subunit A (W7KD62)
Experimental: as §1, §2, §3

[2] = system: 40S ribosomal protein S24 (W7KAD9)
Experimental: as §1, §2, §3

[3] = system: Uncharacterized protein (W7JXC3)
Experimental: as §1, §2, §3

[4] = system: 40S ribosomal protein S4 (W7JT49)
Experimental: as §1, §2, §3

[5] = system: PI3K/PI4K catalytic domain-containing protein (W7K7J6)
Experimental: as §1, §2, §3

[6] = system: AAA family ATPase (W7JWU4)
Experimental: as §1, §2, §3

[7] = system: 60S ribosomal protein L18a (W7JPN9)
Experimental: as §1, §2, §3

[8] = system: 60S ribosomal protein L22 (W7K6D9)
Experimental: as §1, §2, §3

[9] = system: DNA primase large subunit (W7KFW7)
Experimental: as §1, §2, §3

[10] = system: Ubiquitin-protein ligase (W7JWT0)
Experimental: as §1, §2, §3

[11] = system: FACT complex subunit (W7KAC4)
Experimental: as §1, §2, §3

[12] = system: Uncharacterized protein (W7KIB1)
Experimental: as §1, §2, §3

[13] = system: ATP-dependent zinc metalloprotease FTSH (W7JKR1)
Experimental: as §1, §2, §3

[14] = system: 60S ribosomal protein L17 (W7KA36)
Experimental: as §1, §2, §3

CN1CCN(Cc2ccc(O)c(NC(=O)c3cccc(Oc4cc(C(F)(F)F)ccn4)c3)c2)CC1 [Compound 31, N-(2-hydroxy-5-((4-methylpiperazin-1-yl)methyl)phenyl)-3-((4-(trifluoromethyl)pyridin-2-yl)oxy)benzamide] was tested, and the log2FC (DnaJ protein (W7JVI6); 10 µM) was 0.38, the log2FC (DnaJ protein (W7JVI6); 50 µM) was 0.51 and the log2FC (DnaJ protein (W7JVI6); 100 µM) was 0.40. For the same compound, the log2FC (DnaJ protein (W7JVI6); 10^-2 µM) was 0.30, the log2FC (DnaJ protein (W7JVI6); 10^-3 µM) was 0.12 and the log2FC ([1]; 10 µM) was 0.35. For the same compound, the log2FC ([1]; 50 µM) was 0.45, the log2FC ([1]; 100 µM) was 0.31 and the log2FC ([1]; 10^-2 µM) was 0.30. For the same compound, the log2FC ([1]; 10^-3 µM) was 0.15, the log2FC ([2]; 10 µM) was 0.51 and the log2FC ([2]; 50 µM) was 0.70. For the same compound, the log2FC ([2]; 100 µM) was 0.57, the log2FC ([2]; 10^-2 µM) was 0.44 and the log2FC ([2]; 10^-3 µM) was 0.27. For the same compound, the log2FC ([3]; 10 µM) was 0.50, the log2FC ([3]; 50 µM) was 0.70 and the log2FC ([3]; 100 µM) was 0.40. For the same compound, the log2FC ([3]; 10^-2 µM) was 0.36, the log2FC ([3]; 10^-3 µM) was 0.02 and the log2FC ([4]; 10 µM) was 0.53. For the same compound, the log2FC ([4]; 50 µM) was 0.68, the log2FC ([4]; 100 µM) was 0.62 and the log2FC ([4]; 10^-2 µM) was 0.39. It also gave a log2FC ([4]; 10^-3 µM) of 0.19, a log2FC ([5]; 10 µM) of 0.30 and a log2FC ([5]; 50 µM) of 0.44. For the same compound, the log2FC ([5]; 100 µM) was 0.41, the log2FC ([5]; 10^-2 µM) was 0.42 and the log2FC ([5]; 10^-3 µM) was 0.17. The log2FC ([6]; 10 µM) was 0.33, the log2FC ([6]; 50 µM) was 0.46 and the log2FC ([6]; 100 µM) was 0.35. The log2FC ([6]; 10^-2 µM) was 0.29, the log2FC ([6]; 10^-3 µM) was 0.18 and the log2FC ([7]; 10 µM) was 0.72. The log2FC ([7]; 50 µM) was 1.09, the log2FC ([7]; 100 µM) was 0.81 and the log2FC ([7]; 10^-2 µM) was 0.75. For the same compound, the log2FC ([7]; 10^-3 µM) was 0.60, the log2FC ([8]; 10 µM) was 0.72 and the log2FC ([8]; 50 µM) was 0.75. The log2FC ([8]; 100 µM) was 0.65, the log2FC ([8]; 10^-2 µM) was 0.61 and the log2FC ([8]; 10^-3 µM) was 0.18. It also gave a log2FC ([9]; 10 µM) of 0.33, a log2FC ([9]; 50 µM) of 0.51 and a log2FC ([9]; 100 µM) of 0.41. The log2FC ([9]; 10^-2 µM) was 0.50, the log2FC ([9]; 10^-3 µM) was 0.39 and the log2FC ([10]; 10 µM) was 0.52. The log2FC ([10]; 50 µM) was 0.87, the log2FC ([10]; 100 µM) was 0.59 and the log2FC ([10]; 10^-2 µM) was 0.50. The log2FC ([10]; 10^-3 µM) was 0.25, the log2FC ([11]; 10 µM) was 0.30 and the log2FC ([11]; 50 µM) was 0.55. The log2FC ([11]; 100 µM) was 0.41, the log2FC ([11]; 10^-2 µM) was 0.48 and the log2FC ([11]; 10^-3 µM) was 0.30. The log2FC ([12]; 10 µM) was 1.08, the log2FC ([12]; 50 µM) was 1.03 and the log2FC ([12]; 100 µM) was 0.88. It also gave a log2FC ([12]; 10^-2 µM) of 1.16, a log2FC ([12]; 10^-3 µM) of 0.39 and a log2FC ([13]; 10 µM) of 0.49. It also gave a log2FC ([13]; 50 µM) of 0.64, a log2FC ([13]; 100 µM) of 0.46 and a log2FC ([13]; 10^-2 µM) of 0.46. The log2FC ([13]; 10^-3 µM) was 0.20, the log2FC ([14]; 10 µM) was 0.35 and the log2FC ([14]; 50 µM) was 0.49. The log2FC ([14]; 100 µM) was 0.40, the log2FC ([14]; 10^-2 µM) was 0.30 and the log2FC ([14]; 10^-3 µM) was 0.17.
